In US20250296971A1, “GASTRIC INHIBITORY PEPTIDE RECEPTOR LIGANDS” (priority 2021, published 2025):
*1 amine or outer side, *2 acyl side, *3 side chain or, on linkers, in order; H or OH if unused. Where a SMILES comes first, the peptide text is derived from it. Bridges are numbered along the chain shown (N, C = ends). [ ]: non-standard residue; d: D form. Trp(5-Cl) = N[C@@H](Cc1c[nH]c2ccc(Cl)cc12)C(=O)O; Phe(3,4-Cl2) = N[C@@H](Cc1ccc(Cl)c(Cl)c1)C(=O)O; Pyridine(2,6-diCH2) = c1cc(C[*:1])nc(C[*:2])c1; Phe(2,4-Cl2) = N[C@@H](Cc1ccc(Cl)cc1Cl)C(=O)O; Phe(3-Cl) = N[C@@H](Cc1cccc(Cl)c1)C(=O)O; Phe(4-Cl) = N[C@@H](Cc1ccc(Cl)cc1)C(=O)O; Thz(5,5-Me2) = CC1(C)SCN[C@@H]1C(=O)O; Glutaryl = O=C(CCCC(=O)[*:2])[*:1]; Ser(ΨH,HPro) = O=C(O)[C@@H]1COCN1; Hyp = O=C(O)[C@@H]1C[C@@H](O)CN1; pS = N[C@@H](COP(=O)(O)O)C(=O)O; Aic = NC1(C(=O)O)Cc2ccccc2C1; Thp = NC1(C(=O)O)CCOCC1

Target: T1, GIPR (CHO-K1-hGIPR cells) (Homo sapiens, UniProt P48546)
T1 construct: host or cells: CHO-K1
T1 sequence (P48546 22-466): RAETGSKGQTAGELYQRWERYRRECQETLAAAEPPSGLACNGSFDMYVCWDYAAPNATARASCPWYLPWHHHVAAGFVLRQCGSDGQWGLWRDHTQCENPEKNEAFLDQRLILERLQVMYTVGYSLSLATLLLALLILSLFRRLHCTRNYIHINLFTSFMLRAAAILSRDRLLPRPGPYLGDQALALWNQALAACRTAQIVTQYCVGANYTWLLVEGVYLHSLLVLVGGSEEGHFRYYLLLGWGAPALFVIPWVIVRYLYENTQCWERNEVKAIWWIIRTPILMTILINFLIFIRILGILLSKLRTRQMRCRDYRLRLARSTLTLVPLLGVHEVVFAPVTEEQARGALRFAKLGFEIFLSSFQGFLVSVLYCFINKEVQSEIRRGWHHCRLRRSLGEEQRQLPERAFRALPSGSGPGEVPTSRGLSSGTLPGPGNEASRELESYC
Test: FACS binding assay
Conditions: competition with 20 nM GIP-057, 4° C., 1 hour, read-out: pIC50 Category (converted)
Procedure, shortened: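 Median fluorescence in the APC channel, measured on washed CHO-K1 cells overexpressing human GIPR, was fitted by four-parameter logistic regression against peptide concentration to yield EC50 or IC50 values. Secondary labelling used APC-streptavidin (1 μg/mL, 30 min, ice).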

IC50, < 10 nM:
CC[C@H](C)[C@@H]1NC(=O)[C@H](CC(C)C)NC(=O)C2(Cc3ccccc3C2)NC(=O)[C@@H](NC(=O)[C@@H](CC(C)C)NC(=O)[C@H](CCC(=O)O)NC(=O)[C@@H]2C[C@@H](O)CN2C(=O)[C@H](Cc2c[nH]c3ccc(Cl)cc23)NC(=O)[C@H](Cc2c[nH]c3ccccc23)NC(=O)[C@H](CC(=O)O)NC(C)=O)CSCc2cccc(n2)CSC[C@@H](C(N)=O)NC1=O [GIP-206, Ac-Asp-Trp-5Clw-Hyp-Glu-leu-[Cys(2Lut)-Aic-Leu-Ile-Cys]-NH2] (Ac-DW[Trp(5-Cl)][Hyp]E[dL]C[Aic]LIC-NH2; linker 7-11 via Pyridine(2,6-diCH2))
CC[C@H](C)[C@@H]1NC(=O)[C@H](CC(C)C)NC(=O)C2(CCOCC2)NC(=O)[C@@H](NC(=O)[C@@H](CC(C)C)NC(=O)[C@H](CCC(=O)O)NC(=O)[C@@H]2C[C@@H](O)CN2C(=O)[C@H](Cc2c[nH]c3ccc(Cl)cc23)NC(=O)[C@H](Cc2c[nH]c3ccccc23)NC(=O)[C@H](COP(=O)(O)O)NC(C)=O)CSCc2cccc(n2)CSC[C@@H](C(N)=O)NC1=O [GIP-207, Ac-Pse-Trp-5Clw-Hyp-Glu-leu-[Cys(2Lut)-Thp-Leu-Ile-Cys]-NH2] (Ac-[pS]W[Trp(5-Cl)][Hyp]E[dL]C[Thp]LIC-NH2; linker 7-11 via Pyridine(2,6-diCH2))
CC[C@H](C)[C@@H]1NC(=O)[C@H](CC(C)C)NC(=O)C2(CCOCC2)NC(=O)[C@@H](NC(=O)[C@@H](CC(C)C)NC(=O)[C@H](COP(=O)(O)O)NC(=O)[C@@H]2C[C@@H](O)CN2C(=O)[C@H](Cc2c[nH]c3ccc(Cl)cc23)NC(=O)[C@H](Cc2c[nH]c3ccccc23)NC(=O)[C@H](CC(=O)O)NC(C)=O)CSCc2cccc(n2)CSC[C@@H](C(N)=O)NC1=O [GIP-208, Ac-Asp-Trp-5Clw-Hyp-Pse-leu-[Cys(2Lut)-Thp-Leu-Ile-Cys]-NH2] (Ac-DW[Trp(5-Cl)][Hyp][pS][dL]C[Thp]LIC-NH2; linker 7-11 via Pyridine(2,6-diCH2))
CC[C@H](C)[C@@H]1NC(=O)[C@H](CC(C)C)NC(=O)C2(CCOCC2)NC(=O)[C@@H](NC(=O)[C@@H](CC(C)C)NC(=O)[C@H](CCC(=O)O)NC(=O)[C@@H]2C[C@@H](O)CN2C(=O)[C@H](Cc2c[nH]c3ccc(Cl)cc23)NC(=O)[C@H](Cc2cccc(Cl)c2)NC(=O)[C@H](CC(=O)O)NC(C)=O)CSCc2cccc(n2)CSC[C@@H](C(N)=O)NC1=O [GIP-209, Ac-Asp-Mcf-5Clw-Hyp-Glu-leu-[Cys(2Lut)-Thp-Leu-Ile-Cys]-NH2] (Ac-D[Phe(3-Cl)][Trp(5-Cl)][Hyp]E[dL]C[Thp]LIC-NH2; linker 7-11 via Pyridine(2,6-diCH2))
CC[C@H](C)[C@@H]1NC(=O)[C@H](CC(C)C)NC(=O)C2(CCOCC2)NC(=O)[C@@H](NC(=O)[C@@H](CC(C)C)NC(=O)[C@H](CCC(=O)O)NC(=O)[C@@H]2C[C@@H](O)CN2C(=O)[C@H](Cc2c[nH]c3ccc(Cl)cc23)NC(=O)[C@H](Cc2ccc(Cl)cc2)NC(=O)[C@H](CC(=O)O)NC(C)=O)CSCc2cccc(n2)CSC[C@@H](C(N)=O)NC1=O [GIP-210, Ac-Asp-Pcf-5Clw-Hyp-Glu-leu-[Cys(2Lut)-Thp-Leu-Ile-Cys]-NH2] (Ac-D[Phe(4-Cl)][Trp(5-Cl)][Hyp]E[dL]C[Thp]LIC-NH2; linker 7-11 via Pyridine(2,6-diCH2))
CC[C@H](C)[C@@H]1NC(=O)[C@H](CC(C)C)NC(=O)C2(CCOCC2)NC(=O)[C@@H](NC(=O)[C@@H](CC(C)C)NC(=O)[C@H](CCC(=O)O)NC(=O)[C@@H]2C[C@@H](O)CN2C(=O)[C@H](Cc2c[nH]c3ccc(Cl)cc23)NC(=O)[C@H](Cc2ccc(Cl)c(Cl)c2)NC(=O)[C@H](CC(=O)O)NC(C)=O)CSCc2cccc(n2)CSC[C@@H](C(N)=O)NC1=O [GIP-211, Ac-Asp-Eaa-5Clw-Hyp-Glu-leu-[Cys(2Lut)-Thp-Leu-Ile-Cys]-NH2] (Ac-D[Phe(3,4-Cl2)][Trp(5-Cl)][Hyp]E[dL]C[Thp]LIC-NH2; linker 7-11 via Pyridine(2,6-diCH2))
CC[C@H](C)[C@@H]1NC(=O)[C@H](CC(C)C)NC(=O)C2(CCOCC2)NC(=O)[C@@H](NC(=O)[C@@H](CC(C)C)NC(=O)[C@H](CCC(=O)O)NC(=O)[C@@H]2C[C@@H](O)CN2C(=O)[C@H](Cc2c[nH]c3ccc(Cl)cc23)NC(=O)[C@H](Cc2ccc(Cl)cc2Cl)NC(=O)[C@H](CC(=O)O)NC(C)=O)CSCc2cccc(n2)CSC[C@@H](C(N)=O)NC1=O [GIP-212, Ac-Asp-Egm-5Clw-Hyp-Glu-leu-[Cys(2Lut)-Thp-Leu-Ile-Cys]-NH2] (Ac-D[Phe(2,4-Cl2)][Trp(5-Cl)][Hyp]E[dL]C[Thp]LIC-NH2; linker 7-11 via Pyridine(2,6-diCH2))
CC[C@H](C)[C@@H]1NC(=O)[C@H](CC(C)C)NC(=O)C2(CCOCC2)NC(=O)[C@@H](NC(=O)[C@@H](CC(C)C)NC(=O)[C@H](CCC(=O)O)NC(=O)[C@@H]2C[C@@H](O)CN2C(=O)[C@H](Cc2ccc(Cl)c(Cl)c2)NC(=O)[C@H](Cc2c[nH]c3ccccc23)NC(=O)[C@H](CC(=O)O)NC(C)=O)CSCc2cccc(n2)CSC[C@@H](C(N)=O)NC1=O [GIP-213, Ac-Asp-Trp-Eaa-Hyp-Glu-leu-[Cys(2Lut)-Thp-Leu-Ile-Cys]-NH2] (Ac-DW[Phe(3,4-Cl2)][Hyp]E[dL]C[Thp]LIC-NH2; linker 7-11 via Pyridine(2,6-diCH2))
CC[C@H](C)[C@@H]1NC(=O)[C@H](CC(C)C)NC(=O)C2(CCOCC2)NC(=O)[C@@H](NC(=O)[C@@H](CC(C)C)NC(=O)[C@H](CCC(=O)O)NC(=O)[C@@H]2C[C@@H](O)CN2C(=O)[C@H](Cc2c[nH]c3ccc(Cl)cc23)NC(=O)[C@H](Cc2c[nH]c3ccccc23)NC(=O)CCCC(=O)O)CSCc2cccc(n2)CSC[C@@H](C(N)=O)NC1=O [GIP-214, HO-Glutar-Trp-5Clw-Hyp-Glu-leu-[Cys(2Lut)-Thp-Leu-Ile-Cys]-NH2] (Glutaryl-W[Trp(5-Cl)][Hyp]E[dL]C[Thp]LIC-NH2; linker 6-10 via Pyridine(2,6-diCH2))
CC[C@H](C)[C@@H]1NC(=O)[C@H](CC(C)C)NC(=O)C2(CCOCC2)NC(=O)[C@@H](NC(=O)[C@@H](CC(C)C)NC(=O)[C@H](CCC(=O)O)NC(=O)[C@H]2N(C(=O)[C@H](Cc3c[nH]c4ccc(Cl)cc34)NC(=O)[C@H](Cc3c[nH]c4ccccc34)NC(=O)[C@H](CC(=O)O)NC(C)=O)CSC2(C)C)CSCc2cccc(n2)CSC[C@@H](C(N)=O)NC1=O [GIP-215, Ac-Asp-Trp-5Clw-Dtc-Glu-leu-[Cys(2Lut)-Thp-Leu-Ile-Cys]-NH2] (Ac-DW[Trp(5-Cl)][Thz(5,5-Me2)]E[dL]C[Thp]LIC-NH2; linker 7-11 via Pyridine(2,6-diCH2))
CC[C@H](C)[C@@H]1NC(=O)[C@H](CC(C)C)NC(=O)C2(CCOCC2)NC(=O)[C@@H](NC(=O)[C@@H](CC(C)C)NC(=O)[C@H](CCC(=O)O)NC(=O)[C@@H]2COCN2C(=O)[C@H](Cc2c[nH]c3ccc(Cl)cc23)NC(=O)[C@H](Cc2c[nH]c3ccccc23)NC(=O)[C@H](CC(=O)O)NC(C)=O)CSCc2cccc(n2)CSC[C@@H](C(N)=O)NC1=O [GIP-216, Ac-Asp-Trp-5Clw-Oxa-Glu-leu-[Cys(2Lut)-Thp-Leu-Ile-Cys]-NH2] (Ac-DW[Trp(5-Cl)][Ser(ΨH,HPro)]E[dL]C[Thp]LIC-NH2; linker 7-11 via Pyridine(2,6-diCH2))
